Like-named read-outs stand apart in the source and are kept apart here.

Series [1] concerns Sprague-Dawley rats. The series is described as follows: animal or person. Conditions: rats; for ED50: LORR, up and down method, tail vein, class symbols. The class given is in vivo. The text has this: Evaluating indicator: The end point of anesthesia: LORR was used as the end point of anesthesia; General anesthesia effect: the disappearance of forepaw righting reflex in rats lasting for 30 seconds is taken as the index of general anesthesia effect; Anesthesia recovery index: the recovery of rat forepaw righting reflex was used as the index of anesthesia recovery.

The subject of series [2] is Sprague-Dawley rats. The series is described as follows: Pharmacological effect and adverse reactions under the equivalent dose (2ED50), Group C compounds. The class given is in vivo. The following applies: for Righting reflex duration / Sedation duration / Onset time: 2ED50, tail vein, rats, n=8; for Onset time: unit s; for Adverse reaction: Convulsions / Adverse reaction: Cough, broken-winded / Adverse reaction: Euphoria / Adverse reaction: Red urine / Adverse reaction: Slower breathing, Tetany convulsion / Adverse reaction: Systemic stiffness, Convulsions, Opisthotonus / Adverse reaction: Tongue stretching / Adverse reaction: Tremor / Adverse reaction: the four limbs rigidity: equivalent dose (2ED50), number of rats of n = 8. The text has this: (§1) Evaluation index: onset time: from the completion of drug injection to the disappearance of forepaw righting reflex in rats; Duration of anesthesia: the time from the disappearance of rat forepaw righting reflex to the recovery of rat forepaw righting reflex; Recovery time of anesthesia: the time from the […] to complete recovery;

The test system of series [3] is adrenal cortex function. Description: Adrenocortical function in rats: corticosterone after dexamethasone and ACTH, Group C compounds. The following applies: for Give ACTH 30min later(S2) corticosterone concentration: drug at 2ED50, 30 min after ACTH 25 ug/kg; for Baseline(S1) corticosterone concentration: two hours after dexamethasone 0.5 mg/kg, before drug. On the procedure:
(§2) Instruments and equipment: multi-function ion meter (METTLER TOLEDO, models: SevenMulti), pipetting gun (Eppendorf, specifications: 1000 ul, 200 ul, 100 ul, 10 ul), electronic balance (model: ME215S, manufacturers: Sartorius, Germany), the timer. Experimental Method: Adult male Sprague-Dawley rats (250-300 g) were selected for the experiment (n=8), all the experiment were started in the morning. Place indwelling needles in tail vein of rats and inject dexamethasone (0.5 mg/kg). The first time of blood collection (S1) is in two hours later, and give dexamethasone (0.2 mg/kg). […] All the drugs were administered in a volume of 0.6 ml and at a rate of 0.1 ml/s. 15 min later, exogenous ACTH (25 ug/kg) was injected. Another blood sample was collected after 30 min(S2). The blood samples were left standing at room temperature for 30-60 min, followed by centrifugation at 3500 rpm for 10 min. The supernatant was taken and centrifuged again at 15000 rpm for 5 min before being frozen and stored in a −20° C. refrigerator.
(§3) Evaluation indexes: The concentration of the corticosterone in the supernatant of rats before and after given drugs.

Series [4] relates to Sprague-Dawley rats. The class given is in vivo. The following applies: tail vein.
Series [5] has as its system SD rats. The following applies: for After the infusion is stopped: Righting reflex recovery time / Recovery time after stopping infusion: after 1 hour continuous infusion at 2 times the MIR; for After the infusion is stopped: Righting reflex recovery time / Recovery time after stopping infusion / Sedation onset time: SD rats; for Sedation onset time: continuous tail vein infusion at 2 times the MIR. The procedure: (§4) Experimental Methods: Adult male SD rats with body weight ranging from 250 g to 350 g were selected for continuous infusion test.
(§5) Evaluation indexes: the time from the beginning of continuous infusion to the […] of sedation in rats; the time from the cessation of infusion to the restoration of the forepaw turning reflex after 1 hour of continuous infusion; the time from the cessation of infusion to the complete restoration of rats after 1 hour of continuous infusion.

Series [6] deals with Sprague-Dawley rats. The series is described as follows: Pharmacological effect and adverse reactions under the equivalent dose (2ED50), Group D compounds. The class given is in vivo.
From the text: as §1

Series [7] relates to Sprague-Dawley rats. The class given is in vivo. Conditions: tail vein. This is another data set of the same source.
The subject of series [8] is Sprague-Dawley rats. The series is described as follows: animal or person. In kind it is in vivo. Conditions: rats. The source says: Evaluating indicator: The end point of anesthesia: the disappearance of forepaw righting reflex (lorr) was used as the end point of anesthesia; General anesthesia effect: the disappearance of forepaw righting reflex in rats lasting for 30 seconds is taken as the index of general anesthesia effect; Anesthesia recovery index: the recovery of rat forepaw righting reflex was used as the index of anesthesia recovery.

For series [9], the system named is adrenal cortex function. Description: Adrenocortical function in rats: corticosterone after dexamethasone and ACTH, Group D compounds. The following applies: for Baseline(S1) corticosterone concentration: before drug. On the procedure:
as §2, with “Equipment:” for “equipment:”, “min (S2).” for “min(S2).”
as §3

Series [10] relates to SD rats. The procedure:
as §4, §5

Setting [11] is: continuous infusion 2 x MIR 1 hour, rats affected/rats.
[12] abbreviates: equivalent dose (2 × ED50), number of rats of n = 8.
The mark [13] stands for this setting: after 1 hour continuous infusion at 2 times the MIR, SD rats.

As to `CCOCC(=O)c1ccnn1[C@H](C)c1ccccc1` [Compound C2], in [1], the ED50 entry was “++++ (++++ indicates that the measured ED50 is in the range of 2.00-10.00 mg/kg (excluding 2.00 mg/kg, including 6.00 mg/kg))” and the Approximate therapeutic index was over 2.5. Also, in [2], the Righting reflex duration was found to be 1.78 ± 0.53 min, the Sedation duration is 5.38 ± 0.78 min, the Onset time is under 30 s and the “Adverse reaction: Convulsions” value is listed as 0. In addition, in series [2], the “Adverse reaction: Cough, broken-winded” value amounted to 0; the “Adverse reaction: Euphoria” value is listed as 0; the “Adverse reaction: Red urine” value is on record as 8; the “Adverse reaction: Slower breathing, Tetany convulsion” value (shortened to “Adverse reaction: Slower breathing”) was determined as 0. Besides, in series [2], the “Adverse reaction: Systemic stiffness, Convulsions, Opisthotonus” value (from here on “Adverse reaction: Systemic stiffness”) is 0; the “Adverse reaction: Tongue stretching” value amounted to 2; the “Adverse reaction: Tremor” value is listed as 0; the “Adverse reaction: the four limbs rigidity” value stood at 0. For the same compound, in series [3], the “Give ACTH 30min later(S2) corticosterone concentration” value was found to be 242.12 ± 46.22 and the “Baseline(S1) corticosterone concentration” value came to 163.22 ± 35.11. In [4], this compound displayed a Minimal lethal dose of over 12.4 mg/kg. Also, in series [5], the “After the infusion is stopped: Righting reflex recovery time” value (shortened to “After the infusion is stopped”) lay in the range of 10 to 15 min, the “Recovery time after stopping infusion” value lay in the range of 20 to 30 min and the Sedation onset time is recorded as under 5 min. In series [5] (setting [11]), the “Types and incidence of adverse reactions: Red urine” value (“Types and incidence … Red urine” for short) is listed as 6/6; the “Types and incidence of adverse reactions: Tongue stretching” value was “Tongue stretching(4/6)”; the “Types and incidence of adverse reactions: Tremor” value (shortened to “Types and incidence … Tremor”) is recorded as 3/6.
`CC#CCOCC(=O)c1cncn1[C@H](C)c1ccccc1` [Compound C27]: in series [1], the ED50 result is “++ (++ means that the measured ED50 is in the range of 0.50-1.00 mg/kg (excluding 0.50 mg/kg, including 1.00 mg/kg))” and the Approximate therapeutic index is reported as over 16.6. Besides, in series [2], the Righting reflex duration was determined as 1.48 ± 0.14 min, the Sedation duration was 4.39 ± 0.94 min, the Onset time is given as under 30 s and the “Adverse reaction: Convulsions” value came out at 0. In series [2], the “Adverse reaction: Cough, broken-winded” value was 0; the “Adverse reaction: Euphoria” value was found to be 0; the “Adverse reaction: Red urine” value came to 8; the “Adverse reaction: Slower breathing” value is given as 0. Further, in series [2], the “Adverse reaction: Systemic stiffness” value was determined as 1; the “Adverse reaction: Tongue stretching” value was 2; the “Adverse reaction: Tremor” value was found to be 0; the “Adverse reaction: the four limbs rigidity” value was 0. In [3], the “Give ACTH 30min later(S2) corticosterone concentration” value came out at 253.11 ± 34.56 and the “Baseline(S1) corticosterone concentration” value came out at 180.33 ± 46.70. In series [4], this compound showed a Minimal lethal dose of over 13.6 mg/kg. In addition, in [5], the “After the infusion is stopped” value was 12 to 16 min, the “Recovery time after stopping infusion” value lay within 15 to 20 min and the Sedation onset time is listed as under 5 min. Also, in [5] (setting [11]), the “Types and incidence … Red urine” value is recorded as 6/6; the “Types and incidence … Tremor” value is reported as 5/6.
`CCOC(OCC)(OCC)C(=O)c1cncn1[C@H](C)c1ccccc1` [Compound D76]: in [6] (2ED50, tail vein, rats, n=8), the Righting reflex duration was determined as 1.67 ± 1.32 min and the Sedation duration was 6.44 ± 1.82 min. For the same compound, in series [6] (2ED50, tail vein, rats, n=8, unit min), the Onset time is given as under 1 min. In series [6] (setting [12]), the “Adverse reaction: Convulsions” value stood at 0; the “Adverse reaction: Cough, broken-winded” value amounted to 0; the “Adverse reaction: Euphoria” value is 0; the “Adverse reaction: Four limbs rigidity” value amounted to 2. For the same compound, in [6] (setting [12]), the “Adverse reaction: Red urine” value was 8; the “Adverse reaction: Slower breathing” value is 0; the “Adverse reaction: Systemic stiffness” value amounted to 8; the “Adverse reaction: Tongue stretching” value stood at 0. Moreover, in series [6] (setting [12]), the “Adverse reaction: Tremor” value is given as 0. The compound further yielded a Minimal lethal dose in series [7] of over 11.5 mg/kg. For the same compound, in [8] (LORR, up and down method, tail vein, class symbols), the ED50 entry is given as “++ (++ indicates that the measured ED50 is in the range of 0.50-1.00 mg/kg (excluding 0.50 mg/kg, including 1.00 mg/kg))”. In addition, the Approximate therapeutic index in [8] was over 31.8. Also, the “Baseline(S1) corticosterone concentration” value in series [9] (Table 17 printed a second time) was 153.23 ± 30.91. Further, the “Give ACTH 30min later(S2) corticosterone concentration” value in [9] (drug at 2ED50, 30 min after ACTH 25 ug/kg) is listed as 277.88 ± 34.56. The “Give ACTH 30min later(S2) corticosterone concentration” value in series [9] (drug at 2ED50, 30 min after ACTH, Table 17 printed a second time) came to 277.88 ± 34.56. Also, the “Baseline(S1) corticosterone concentration” value in series [9] (two hours after dexamethasone 0.5 mg/kg) stood at 153.23 ± 30.91. Further, in series [10] (setting [13]), the “After the infusion is stopped” value was in the range of 15 to 25 min and the “Recovery time after stopping infusion” value lay within 25 to 40 min. Besides, in series [10] (setting [11]), the “Types and incidence of adverse reactions: Hindlimb rigidity” value is reported as “rigidity(2/6)”; the “Types and incidence … Red urine” value was “Red urine(6/6), Hindlimb”. The compound also registered a Sedation onset time in series [10] (continuous tail vein infusion at 2 times the MIR, SD rats) of under 5 min.
As to `C#CCOCC(=O)c1cc(F)nn1[C@H](C)c1ccccc1` [Compound C15], in series [1], the ED50 result was “++++ (++++ indicates that the measured ED50 is in the range of 2.00-10.00 mg/kg (excluding 2.00 mg/kg, including 6.00 mg/kg))” and the Approximate therapeutic index was over 3.4. In series [2], the Righting reflex duration was found to be 2.13 ± 0.59 min, the Sedation duration came out at 5.3 ± 0.92 min, the Onset time is reported as under 30 s and the “Adverse reaction: Convulsions” value was 0. Besides, in [2], the “Adverse reaction: Cough, broken-winded” value was 0; the “Adverse reaction: Euphoria” value is listed as 0; the “Adverse reaction: Red urine” value is recorded as 8; the “Adverse reaction: Slower breathing” value is recorded as 0. In series [2], the “Adverse reaction: Systemic stiffness” value is on record as 0; the “Adverse reaction: Tongue stretching” value was determined as 0; the “Adverse reaction: Tremor” value was 1; the “Adverse reaction: the four limbs rigidity” value worked out at 0. Moreover, in series [3], the “Give ACTH 30min later(S2) corticosterone concentration” value came out at 267.99 ± 33.20 and the “Baseline(S1) corticosterone concentration” value was 145.90 ± 54.33. Moreover, in series [4], the Minimal lethal dose was over 16.8 mg/kg. In addition, in series [5], the “After the infusion is stopped” value is 16 to 18 min, the “Recovery time after stopping infusion” value fell in the range of 30 to 36 min and the Sedation onset time is recorded as under 5 min. Also, in [5] (setting [11]), the “Types and incidence … Red urine” value is recorded as 6/6; the “Types and incidence … Tremor” value is given as 1/6.
